Data reported in PubChem BioAssay (NCI).
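Test compounds were applied to cells in 96-well plates for 48 hours at 5 doses. GI50 is the concentration that inhibits growth by half. TGI: concentration producing complete growth inhibition.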

Legend:
Assay in all cases: inhibition of tumour cell growth, NCI panel, 48 h
OVCAR-8 ovarian = test system: OVCAR-8 ovarian
A498 renal = test system: A498 renal
HCT-116 colon = test system: HCT-116 colon
LOX IMVI melanoma = test system: LOX IMVI melanoma
IGROV1 ovarian = test system: IGROV1 ovarian
K-562 leukemia = test system: K-562 leukemia
MALME-3M melanoma = test system: MALME-3M melanoma
SF-295 CNS = test system: SF-295 CNS
SNB-78 CNS = test system: SNB-78 CNS
HOP-18 NSCLC = test system: HOP-18 NSCLC
NCI/ADR-RES ovarian = test system: NCI/ADR-RES ovarian

SMILES | TGI (OVCAR-8 ovarian) | TGI (A498 renal) | TGI (HCT-116 colon) | TGI (LOX IMVI melanoma) | TGI (IGROV1 ovarian) | TGI (K-562 leukemia) | TGI (MALME-3M melanoma) | TGI (SF-295 CNS) | TGI (SNB-78 CNS) | TGI (HOP-18 NSCLC) | TGI (NCI/ADR-RES ovarian) | GI50 (NCI/ADR-RES ovarian) | GI50 (OVCAR-8 ovarian) | GI50 (A498 renal) | GI50 (HCT-116 colon) | GI50 (LOX IMVI melanoma) | GI50 (IGROV1 ovarian) | GI50 (K-562 leukemia) | GI50 (MALME-3M melanoma) | GI50 (SF-295 CNS)
O=C1OC(c2ccccc2Br)=N/C1=C/c1ccccc1 | 59.6 µM | > 100 µM | > 100 µM | 38.8 µM | > 100 µM | > 100 µM | 45.5 µM | > 100 µM |  |  |  |  |  |  |  |  |  |  |  | 
O=C1CCC2COc3ccc(O)c1c32 (stereo not given) | > 100 µM | > 100 µM | > 100 µM | > 100 µM | > 100 µM | > 100 µM |  | > 100 µM | > 100 µM | > 100 µM |  |  |  |  |  |  |  |  |  | 
O=c1oc2ccccc2n1P(=O)(Oc1ccc(Cl)cc1)n1c(=O)oc2ccccc21 | > 100 µM | > 100 µM | > 100 µM | > 100 µM | > 100 µM | > 100 µM | > 100 µM | > 100 µM | > 100 µM | > 100 µM |  |  |  |  |  |  |  |  |  | 
COc1nc(NC2OC(CO)C(O)C(O)C2O)c(N)c(=O)[nH]1 (stereo not given) | > 100 µM | > 100 µM | > 100 µM | > 100 µM | > 100 µM | > 100 µM | > 100 µM | > 100 µM | > 100 µM | > 100 µM | > 100 µM |  |  |  |  |  |  |  |  | 
Nc1ncnc2c1ccn2-c1cccc(NC(=O)c2ccc(N3CCOCC3)c(C(F)(F)F)c2)c1 | 9.62 µM | 12.8 µM | 10.3 µM | 12.7 µM | 33.2 µM | 16 µM | 13.2 µM | 7.31 µM |  |  | 23.4 µM | 2.93 µM | 2.91 µM | 3.06 µM | 2.71 µM | 3.1 µM | 3.83 µM | 2.41 µM | 3.08 µM | 2.44 µM
COC(=O)Cc1c(C2C(CC(=O)OC)c3ccccc3N2C2OC(CO)C(O)C(O)C2O)[nH]c2ccccc12 (stereo not given) |  | > 100 µM | > 100 µM |  | > 100 µM |  | > 100 µM | > 100 µM |  |  |  |  |  |  |  |  |  |  |  | 
CC(C)(C)CI | > 10 µM | > 100 µM | 39.7 µM | 33.4 µM | > 100 µM | 58.4 µM | 46.6 µM | 33.9 µM | 79.4 µM | > 10 µM |  |  |  |  |  |  |  |  |  | 
CC1OC(CO)(n2cnc3c(N)ncnc32)C(O)C1O (stereo not given) | > 100 µM | > 100 µM | > 100 µM | > 100 µM | > 100 µM | > 100 µM | > 100 µM | > 100 µM | > 100 µM | > 100 µM | > 100 µM |  |  |  |  |  |  |  |  | 
CCCCCCCCCCCCCCCCCCOc1ccccc1COP(=O)(O)OOCC[N+](C)(C)C | 9.22 µM | 17.2 µM |  |  | 1.5 µM | 50 µM | 3.21 µM | 4.32 µM |  |  | 20.6 µM | 6.59 µM | 1.41 µM | 6.88 µM |  |  | 0.738 µM | 1.23 µM | 1.16 µM | 1.23 µM
C#CCNC(=O)CC[C@@H](C)[C@H]1CC[C@H]2[C@@H]3CC[C@@H]4CC(=O)CC[C@]4(C)[C@H]3CC[C@]12C | 32.8 µM | > 100 µM | 52 µM | 39.8 µM | 3.13 µM | 44.3 µM | 31.7 µM | 49.4 µM |  |  | 45.3 µM | 16.9 µM | 6.06 µM | 25 µM | 12.9 µM | 17.5 µM | 0.649 µM | 5.19 µM | 14 µM | 19.3 µM
NC(CSCSCC(N)C(=O)O)C(=O)O (stereo not given) | > 22.5 µM | > 225 µM | > 225 µM | > 225 µM | > 225 µM | > 225 µM | > 225 µM | > 225 µM | > 104 µM | > 225 µM | > 104 µM |  |  |  |  |  |  |  |  | 
